This note sets out measurements from paper PMC6152672, “Cholinesterase Inhibitory Activities of Adamantyl-Based Derivatives and Their Molecular Docking Studies” (Molecules : A Journal of Synthetic Chemistry and Natural …, 2017).

Assay [1] concerns the target T1, Electric eel acetylcholinesterase (AChE, EC 3.1.1.7) (Electrophorus electricus, UniProt O42275).
T1 construct: purchased Sigma-Aldrich (St. Louis, MO, USA)
Description: biochemical. Particulars: for AChE inhibition effect (in words): 2a, 2r: up to a concentration of 1000 µM. The format is biochemical. From the text:
(§1) Electric eel acetylcholinesterase (AChE, EC 3.1.1.7), equine serum butyrylcholinesterase (BChE, EC 3.1.1.8), 5,5’-dithio-bis-2-nitrobenzoic acid (DTNB), and sodium phosphate dibasic (Na2HPO4) were purchased from Sigma-Aldrich (St. Louis, MO, USA). S-butyrylthiocholine chloride (BTCC) from Sigma-Aldrich (Buchs, Switzerland), acetylthiocholine iodide (ATCI) from Sigma-Aldrich (Dorset, UK) and sodium phosphate monobasic (NaH2PO4) from Sigma-Aldrich (Munich, Germany) were purchased. […] The reagents and solvents for the synthesis work were obtained commercially from Sigma-Aldrich Corporation (St. Louis, MO, USA) and used without any further purification.
(§2) AChE and BChE inhibitory activities of the compounds were determined by Ellman’s assay with minor modifications. […] After a pre-incubation of 15 min at room temperature, 10 µL of 0.50 mM DTNB was added into each well, followed by 10 µL of 0.71 mM acetylthiocholine iodide as the substrate. […] Each test was carried out in triplicate and the results were expressed as an average value. The percentage of inhibition was calculated using the following formula: (1) Percentage of inhibition=S blank -S sample/S blank × 100% where S blank is slope of the blank reaction (without compounds or a reference standard) and S sample is the slope of the sample reaction (with compounds or a reference drug).
(§3) The results of the cholinesterase inhibitory assay were expressed as means ± SD, and were labeled if p < 0.05 using ANOVA of IBM SPSS Statistics for Windows, Version 23.0 (IBM, New York, NY, USA).

The target of assay [2] is T2, equine serum butyrylcholinesterase (BChE, EC 3.1.1.8) (Equus caballus, UniProt P81908).
T2 construct: purchased Sigma-Aldrich (St. Louis, MO, USA); host or cells: equine serum
Description: biochemical. The format is biochemical. Particulars: for BChE inhibition effect (in words): 2a, 2r: up to a concentration of 1000 µM.
Source text: as §1, §2, §3

Where [3] appears, read: Ellman's assay, pH 8, 15 min pre-incubation, acetylthiocholine iodide substrate, mean ± SD, triplicate, read-out: AChE IC50.
[4] abbreviates: Ellman's assay, pH 8, 15 min pre-incubation, butyrylthiocholine chloride substrate, mean ± SD, triplicate, read-out: BChE IC50.

Where two headings read alike, the source gives them in different places.

T1 sequence (O42275 24-633): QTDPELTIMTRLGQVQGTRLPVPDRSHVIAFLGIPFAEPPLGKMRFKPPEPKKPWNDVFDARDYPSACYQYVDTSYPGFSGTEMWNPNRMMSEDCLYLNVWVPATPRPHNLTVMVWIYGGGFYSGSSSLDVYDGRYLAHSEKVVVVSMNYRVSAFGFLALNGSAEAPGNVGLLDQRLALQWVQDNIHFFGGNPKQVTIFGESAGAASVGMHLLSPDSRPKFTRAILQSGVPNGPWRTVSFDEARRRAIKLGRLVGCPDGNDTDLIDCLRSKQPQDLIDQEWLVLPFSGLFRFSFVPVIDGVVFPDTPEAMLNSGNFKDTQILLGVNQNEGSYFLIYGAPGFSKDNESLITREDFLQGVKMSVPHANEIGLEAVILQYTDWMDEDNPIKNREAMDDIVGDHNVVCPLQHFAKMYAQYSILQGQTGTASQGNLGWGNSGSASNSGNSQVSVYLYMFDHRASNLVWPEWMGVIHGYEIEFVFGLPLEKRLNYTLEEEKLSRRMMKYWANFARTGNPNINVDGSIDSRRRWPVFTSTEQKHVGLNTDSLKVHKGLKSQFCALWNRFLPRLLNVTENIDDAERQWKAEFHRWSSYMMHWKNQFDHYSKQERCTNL
T2 sequence (P81908 whole entry): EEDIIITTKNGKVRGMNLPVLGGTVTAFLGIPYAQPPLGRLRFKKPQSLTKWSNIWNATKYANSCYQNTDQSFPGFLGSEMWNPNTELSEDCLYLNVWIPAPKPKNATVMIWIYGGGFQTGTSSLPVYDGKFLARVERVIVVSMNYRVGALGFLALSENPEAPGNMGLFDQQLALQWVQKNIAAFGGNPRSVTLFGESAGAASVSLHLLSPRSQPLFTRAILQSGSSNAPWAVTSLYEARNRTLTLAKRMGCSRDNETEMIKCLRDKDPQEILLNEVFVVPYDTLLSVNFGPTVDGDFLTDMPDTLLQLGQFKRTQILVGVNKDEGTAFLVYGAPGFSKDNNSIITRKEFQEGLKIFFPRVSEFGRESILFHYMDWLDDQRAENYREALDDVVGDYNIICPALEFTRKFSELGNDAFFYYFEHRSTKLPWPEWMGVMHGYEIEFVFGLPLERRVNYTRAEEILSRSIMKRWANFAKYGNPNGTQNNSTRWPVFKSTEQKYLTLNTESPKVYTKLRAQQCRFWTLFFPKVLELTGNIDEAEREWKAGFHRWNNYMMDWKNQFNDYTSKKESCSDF

Broadly, the IC50 is the concentration that inhibits the measured activity by half. Take `O=C(OCC(=O)C12CC3CC(CC(C3)C1)C2)c1ccc([N+](=O)[O-])cc1` [Compound 2n, 2-(Adamantan-1-yl)-2-oxoethyl 4-nitrobenzoate]: the values for the IC50 in assay [1] (setting [3]) and in assay [2] (setting [4]) were 349 ± 25.2 µM and 0.777 ± 0.0336 mM, respectively.
With `O=C(OCC(=O)C12CC3CC(CC(C3)C1)C2)c1ccc(Cl)cc1` [Compound 2d, 2-(Adamantan-1-yl)-2-oxoethyl 4-chlorobenzoate], the IC50 in assay [1] (setting [3]) was found to be 341 ± 34.7 µM; in assay [2] (setting [4]) it was 1.29 ± 0.0301 mM.
As to `COc1ccccc1C(=O)OCC(=O)C12CC3CC(CC(C3)C1)C2` [Compound 2i, 2-(Adamantan-1-yl)-2-oxoethyl 2-methoxybenzoate], the IC50 in assay [1] (setting [3]) was greater than 1500 µM; in assay [2] (setting [4]) it was greater than 1.5 mM.
Take `O=C(OCC(=O)C12CC3CC(CC(C3)C1)C2)c1ccccc1[N+](=O)[O-]` [Compound 2l, 2-(Adamantan-1-yl)-2-oxoethyl 2-nitrobenzoate]: the concentration for half-maximal inhibition (IC50) in assay [1] (setting [3]) is 689 ± 44.5 µM; in assay [2] (setting [4]), greater than 1.5 mM.
For `Nc1cccc(C(=O)OCC(=O)C23CC4CC(CC(C4)C2)C3)c1` [Compound 2p, 2-(adamantan-1-yl)-2-oxoethyl 3-aminobenzoate], the “AChE inhibition effect (in words)” value in assay [1] was “inactive”. Moreover, the IC50 was greater than 1500 µM in assay [1] (setting [3]) and greater than 1.5 mM in assay [2] (setting [4]). Besides, the “BChE inhibition effect (in words)” value in assay [2] is “inactive”.
For `O=C(OCC(=O)C12CC3CC(CC(C3)C1)C2)c1ccccn1` [Compound 2r, 2-(Adamantan-1-yl)-2-oxoethyl picolinate], the “AChE inhibition effect (in words)” value in assay [1] was “low inhibition effects”. Moreover, the results for the IC50 in assay [1] (setting [3]) and in assay [2] (setting [4]) were greater than 1500 µM and greater than 1.5 mM, respectively. Moreover, the “BChE inhibition effect (in words)” value in assay [2] is recorded as “low inhibition effects”.
For the compound `O=C(OCC(=O)C12CC3CC(CC(C3)C1)C2)c1ccc(Cl)cc1Cl` [Compound 2e, 2-(Adamantan-1-yl)-2-oxoethyl 2,4-dichlorobenzoate], the half-maximal inhibitory concentration (IC50) in assay [1] (setting [3]) was found to be 77.1 ± 7.86 µM; in assay [2] (setting [4]) it was 0.307 ± 0.0251 mM.
Turning to `O=C(OCC(=O)C12CC3CC(CC(C3)C1)C2)c1cccc([N+](=O)[O-])c1` [Compound 2m, 2-(Adamantan-1-yl)-2-oxoethyl 3-nitrobenzoate], the IC50 in assay [1] (setting [3]) was 233 ± 25.9 µM; in assay [2] (setting [4]), greater than 1.5 mM.
As to `Nc1ccc(C(=O)OCC(=O)C23CC4CC(CC(C4)C2)C3)cc1` [Compound 2q, 2-(adamantan-1-yl)-2-oxoethyl 4-aminobenzoate], the “AChE inhibition effect (in words)” value in assay [1] was “inactive”. For the same compound, the IC50 in assay [1] (setting [3]) was greater than 1500 µM; in assay [2] (setting [4]), greater than 1.5 mM. The “BChE inhibition effect (in words)” value in assay [2] was “inactive”.
Take `O=C(OCC(=O)C12CC3CC(CC(C3)C1)C2)c1ccccc1Cl` [Compound 2b, 2-(Adamantan-1-yl)-2-oxoethyl 2-chlorobenzoate]: the IC50 is 361 ± 30 µM in assay [1] (setting [3]) and greater than 1.5 mM in assay [2] (setting [4]).
In the same order, the values of `Cc1ccccc1C(=O)OCC(=O)C12CC3CC(CC(C3)C1)C2` [Compound 2f, 2-(Adamantan-1-yl)-2-oxoethyl 2-methylbenzoate] are 175 ± 25.9 µM and greater than 1.5 mM.
As for `Cc1ccc(C(=O)OCC(=O)C23CC4CC(CC(C4)C2)C3)cc1` [Compound 2h, 2-(Adamantan-1-yl)-2-oxoethyl 4-methylbenzoate], the IC50 in assay [1] (setting [3]) is greater than 1500 µM; in assay [2] (setting [4]), greater than 1.5 mM.
As to `Nc1ccccc1C(=O)OCC(=O)C12CC3CC(CC(C3)C1)C2` [Compound 2o, 2-(adamantan-1-yl)-2-oxoethyl 2-aminobenzoate], in assay [1], the IC50 was greater than 1500 µM and the “AChE inhibition effect (in words)” value was “inactive”. Besides, in assay [2], the IC50 was greater than 1.5 mM and the “BChE inhibition effect (in words)” value is “inactive”.
On to `Cc1cccc(C(=O)OCC(=O)C23CC4CC(CC(C4)C2)C3)c1` [Compound 2g, 2-(Adamantan-1-yl)-2-oxoethyl 3-methylbenzoate], for which the IC50 in assay [1] (setting [3]) was 191 ± 14.4 µM; in assay [2] (setting [4]), greater than 1.5 mM.
`O=C(OCC(=O)C12CC3CC(CC(C3)C1)C2)c1ccccc1` [Compound 2a, 2-(Adamantan-1-yl)-2-oxoethyl benzoate]: the “AChE inhibition effect (in words)” value in assay [1] was “low inhibition effects”. The IC50 in assay [1] (setting [3]) was 994 ± 19.4 µM; in assay [2] (setting [4]), greater than 1.5 mM. Moreover, the “BChE inhibition effect (in words)” value in assay [2] is “low inhibition effects”.
Turning to `O=C(OCC(=O)C12CC3CC(CC(C3)C1)C2)c1cccc(Cl)c1` [Compound 2c, 2-(Adamantan-1-yl)-2-oxoethyl 3-chlorobenzoate], the IC50 in assay [1] (setting [3]) came out at 280 ± 17.4 µM; in assay [2] (setting [4]), 0.971 ± 0.0625 mM.
In the case of `COc1ccc(C(=O)OCC(=O)C23CC4CC(CC(C4)C2)C3)cc1` [Compound 2k, 2-(Adamantan-1-yl)-2-oxoethyl 4-methoxybenzoate], the IC50 in assay [1] (setting [3]) was greater than 1500 µM; in assay [2] (setting [4]), greater than 1.5 mM.
In the case of `COc1cccc(C(=O)OCC(=O)C23CC4CC(CC(C4)C2)C3)c1` [Compound 2j, 2-(Adamantan-1-yl)-2-oxoethyl 3-methoxybenzoate], the IC50 stood at 166 ± 19.6 µM in assay [1] (setting [3]) and 0.223 ± 0.0176 mM in assay [2] (setting [4]).
